Results taken from publication PMC6447857, “Structural Study of Agmatine Iminohydrolase From Medicago truncatula, the Second Enzyme of the Agmatine Route of Putrescine Biosynthesis in Plants” (Frontiers in Plant Science, 2019).

Target: T1, MtAIH (Medicago truncatula, UniProt G7JT50)
T1 construct: gene AIH; ORF from codon 11 (leaf cDNA), pMCSG68, N-terminal His6-tag removed by TEV, Ser-Asn-Ala linker kept; E. coli BL21 Gold; homodimer (81 kDa by MALS)
Test: X-ray crystallography (cocrystallization), […] A
Type: binding
Details: 10 mM ligand, Morpheus Screen, pH 6.5; active site; reaction product analog; bound in three of four chains

T1 sequence (G7JT50 11-374): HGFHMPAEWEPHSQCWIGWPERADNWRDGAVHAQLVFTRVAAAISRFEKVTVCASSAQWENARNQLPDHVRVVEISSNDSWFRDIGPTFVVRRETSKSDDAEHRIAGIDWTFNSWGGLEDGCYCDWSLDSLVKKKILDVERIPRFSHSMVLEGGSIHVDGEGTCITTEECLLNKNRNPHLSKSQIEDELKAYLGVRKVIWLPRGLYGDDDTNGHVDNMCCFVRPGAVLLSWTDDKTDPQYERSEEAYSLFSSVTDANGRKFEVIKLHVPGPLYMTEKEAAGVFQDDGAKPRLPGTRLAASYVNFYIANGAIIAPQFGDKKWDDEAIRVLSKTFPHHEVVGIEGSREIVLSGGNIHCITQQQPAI

Compound: NCCCCCC(N)=O [AHX, 6-aminohexanamide]
- X-ray crystallography (cocrystallization), 2.20 A: The MtAIH-AHX structure was obtained by cocrystallization and presents the bound AHX
